Results taken from PubChem BioAssay AID248 (DTP/NCI, 2004).
Where “and” joins values, the source holds several entries; their conditions need not be identical. Equal values may be shown once. Inconclusive results and toxic doses are left out.

System: L1210 leukemia ip in BDF1 mice, survival T/C
Assay: NCI In Vivo Anticancer Drug Screen. Data for tumor model L1210 Leukemia (intraperitoneal) in B6D2F1 (BDF1) mice
Settings: endpoint: mean survival time, higher = longer survival
How it was run: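 Each compound was tested against a transplantable tumor grown in mice. The endpoint was survival, with treated animals benchmarked against vehicle controls as a simple ratio.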

[1] = dose: 100.0 mg/kg/injection, schedule: Q01DX009 (ip), vehicle: Klucel (hydroxypropylcellulose) (HPC)
[2] = dose: 200.0 mg/kg/injection, schedule: Q01DX009 (ip), vehicle: Klucel (hydroxypropylcellulose) (HPC)
[3] = dose: 400.0 mg/kg/injection, schedule: Q01DX009 (ip), vehicle: Klucel (hydroxypropylcellulose) (HPC)
[4] = dose: 100.0 mg/kg/injection, schedule: Q04DX003 (ip), vehicle: Klucel (hydroxypropylcellulose) (HPC)
[5] = dose: 100.0 mg/kg/injection, schedule: Q04DX002 (ip), vehicle: Klucel (hydroxypropylcellulose) (HPC)
[6] = dose: 200.0 mg/kg/injection, schedule: Q04DX002 (ip), vehicle: Klucel (hydroxypropylcellulose) (HPC)
[7] = dose: 400.0 mg/kg/injection, schedule: Q04DX002 (ip), vehicle: Klucel (hydroxypropylcellulose) (HPC)
[8] = dose: 100.0 mg/kg/injection, schedule: Q01DX001 (ip), vehicle: Klucel (hydroxypropylcellulose) (HPC)
[9] = dose: 200.0 mg/kg/injection, schedule: Q01DX001 (ip), vehicle: Klucel (hydroxypropylcellulose) (HPC)
[10] = dose: 200.0 mg/kg/injection, schedule: Q04DX003 (ip), vehicle: Klucel (hydroxypropylcellulose) (HPC)
[11] = dose: 400.0 mg/kg/injection, schedule: Q01DX001 (ip), vehicle: Klucel (hydroxypropylcellulose) (HPC)
[12] = dose: 400.0 mg/kg/injection, schedule: Q04DX003 (ip), vehicle: Klucel (hydroxypropylcellulose) (HPC)
[13] = dose: 12.5 mg/kg/injection, schedule: Q01DX001 (ip), vehicle: saline with Tween-80
[14] = dose: 100.0 mg/kg/injection, schedule: Q04DX003 (ip), vehicle: saline with Tween-80
[15] = dose: 200.0 mg/kg/injection, schedule: Q04DX003 (ip), vehicle: saline with Tween-80
[16] = dose: 400.0 mg/kg/injection, schedule: Q04DX003 (ip), vehicle: saline with Tween-80

SMILES: CC(=O)O[C@H]1CCCC[C@@H]1NC(=O)N(CCCl)N=O
- T/C (dose: 4.4 mg/kg/injection, schedule: Q01DX001 (ip), vehicle: carboxymethylcellulose (CMC)): 118 % of control
- T/C (dose: 6.7 mg/kg/injection, schedule: Q01DX001 (ip), vehicle: carboxymethylcellulose (CMC)): 175 % of control
- T/C (dose: 10.0 mg/kg/injection, schedule: Q01DX001 (ip), vehicle: carboxymethylcellulose (CMC)): 194 % of control
- T/C (dose: 15.0 mg/kg/injection, schedule: Q01DX001 (ip), vehicle: carboxymethylcellulose (CMC)): 313 % of control and 338 % of control
- T/C (dose: 27.0 mg/kg/injection, schedule: Q01DX001 (ip), vehicle: carboxymethylcellulose (CMC)): 446 % of control
- T/C (dose: 40.0 mg/kg/injection, schedule: Q01DX001 (ip), vehicle: carboxymethylcellulose (CMC)): 404 % of control
- T/C (dose: 60.0 mg/kg/injection, schedule: Q01DX001 (ip), vehicle: carboxymethylcellulose (CMC)): 196 % of control

SMILES: CC(C)(C)C1=CC(=O)C(Cl)(C(C)(C)C)C(Cl)C1=O (configuration not stated)
- T/C (dose: 100.0 mg/kg/injection, schedule: Q01DX001 (ip), vehicle: saline with Tween-80): 97 % of control
- T/C (dose: 200.0 mg/kg/injection, schedule: Q01DX001 (ip), vehicle: saline with Tween-80): 90 % of control

SMILES: O=C1CC2CC1C1C(=O)OC(=O)C21 (configuration not stated)
- T/C (dose: 75.0 mg/kg/injection, schedule: Q01DX001 (ip), vehicle: acetone): 91 % of control
- T/C (dose: 150.0 mg/kg/injection, schedule: Q01DX001 (ip), vehicle: acetone): 104 % of control
- T/C (dose: 300.0 mg/kg/injection, schedule: Q01DX001 (ip), vehicle: acetone): 98 % of control

SMILES: COc1cc(/C=N\N=C\c2ccc(F)cc2)cc(OC)c1OC
- T/C [1]: 93 % of control
- T/C [2]: 93 % of control
- T/C [3]: 88 % of control

SMILES: C#CC(OC(=O)NC)(c1ccccc1)c1ccc(OC)cc1 (configuration not stated)
- T/C (dose: 6.25 mg/kg/injection, schedule: Q01DX009 (ip), vehicle: Klucel (hydroxypropylcellulose) (HPC)): 112 % of control
- T/C (dose: 11.0 mg/kg/injection, schedule: Q01DX006 (ip), vehicle: Klucel (hydroxypropylcellulose) (HPC)): 120 % of control
- T/C (dose: 12.5 mg/kg/injection, schedule: Q01DX009 (ip), vehicle: Klucel (hydroxypropylcellulose) (HPC)): 114 % of control
- T/C (dose: 25.0 mg/kg/injection, schedule: Q01DX006 (ip), vehicle: Klucel (hydroxypropylcellulose) (HPC)): 115 % of control
- T/C (dose: 37.0 mg/kg/injection, schedule: Q01DX006 (ip), vehicle: Klucel (hydroxypropylcellulose) (HPC)): 109 % of control
- T/C (dose: 50.0 mg/kg/injection, schedule: Q01DX009 (ip), vehicle: Klucel (hydroxypropylcellulose) (HPC)): 119 % of control
- T/C [4]: 111 % of control

SMILES: CCOC(=O)NCC1(c2ccccc2)CCNCC1
- T/C (dose: 20.0 mg/kg/injection, schedule: Q04DX003 (ip), vehicle: Klucel (hydroxypropylcellulose) (HPC)): 102 % of control
- T/C (dose: 40.0 mg/kg/injection, schedule: Q04DX003 (ip), vehicle: Klucel (hydroxypropylcellulose) (HPC)): 102 % of control
- T/C (dose: 80.0 mg/kg/injection, schedule: Q04DX003 (ip), vehicle: Klucel (hydroxypropylcellulose) (HPC)): 102 % of control

SMILES: COc1ccc(Cl)c(C(=O)O)c1
- T/C [5]: 114 % of control
- T/C [6]: 114 % of control
- T/C [7]: 103 % of control

SMILES: COc1cc([N+](=O)[O-])ccc1NC(=O)OCC(Cl)(Cl)Cl
- T/C [8]: 98 % of control
- T/C [1]: 93 % of control and 92 % of control
- T/C [5]: 95 % of control and 102 % of control
- T/C [4]: 99 % of control
- T/C [9]: 100 % of control
- T/C [2]: 103 % of control and 92 % of control
- T/C [6]: 98 % of control and 111 % of control
- T/C [10]: 94 % of control
- T/C [11]: 96 % of control
- T/C [3]: 109 % of control and 88 % of control
- T/C [7]: 95 % of control and 98 % of control
- T/C [12]: 105 % of control

SMILES: C#CCOCC(O)C[As](=O)(O)c1ccc(Cl)cc1 (configuration not stated)
- T/C (dose: 6.25 mg/kg/injection, schedule: Q01DX001 (ip), vehicle: saline with Tween-80): 101 % of control
- T/C [13]: 106 % of control

SMILES: CCCCCCCCCCCC[N+]1(C)CC[N+](C)(CCCCCCCCCCCC)CC1 (configuration not stated)
- T/C (dose: 100.0 mg/kg/injection, schedule: Q04DX002 (ip), vehicle: other): 105 % of control
- T/C (dose: 200.0 mg/kg/injection, schedule: Q04DX002 (ip), vehicle: other): 101 % of control

SMILES: CCC(C)NC(=O)Oc1cccc(NC(=O)OC)c1 (configuration not stated)
- T/C [14]: 95 % of control
- T/C [15]: 93 % of control
- T/C [16]: 92 % of control

SMILES: COc1cc(CNC(=O)NCCCl)cc(OC)c1OC
- T/C [8]: 96 % of control
- T/C [1]: 94 % of control
- T/C [9]: 88 % of control
- T/C [2]: 95 % of control
- T/C [11]: 98 % of control
- T/C [3]: 90 % of control

SMILES: NS(=O)(=O)c1cc2c(cc1Cl)NC(CC1CCCC1)NS2(=O)=O (configuration not stated)
- T/C (dose: 100.0 mg/kg/injection, schedule: Q01DX001 (ip), vehicle: saline): 105 % of control
- T/C (dose: 200.0 mg/kg/injection, schedule: Q01DX001 (ip), vehicle: saline): 100 % of control
- T/C (dose: 400.0 mg/kg/injection, schedule: Q01DX001 (ip), vehicle: saline): 107 % of control

SMILES: Nc1cncc2ccccc12
- T/C (dose: 25.0 mg/kg/injection, schedule: Q01DX009 (ip), vehicle: gum acacia): 96 % of control
- T/C (dose: 25.0 mg/kg/injection, schedule: Q04DX003 (ip), vehicle: gum acacia): 100 % of control
- T/C (dose: 50.0 mg/kg/injection, schedule: Q01DX009 (ip), vehicle: gum acacia): 111 % of control
- T/C (dose: 50.0 mg/kg/injection, schedule: Q04DX003 (ip), vehicle: gum acacia): 98 % of control
- T/C (dose: 100.0 mg/kg/injection, schedule: Q01DX009 (ip), vehicle: gum acacia): 103 % of control
- T/C (dose: 100.0 mg/kg/injection, schedule: Q04DX003 (ip), vehicle: gum acacia): 102 % of control and 104 % of control

SMILES: CCCS(=O)(=O)N1CCCC(C)C1 (configuration not stated)
- T/C [5]: 94 % of control
- T/C [6]: 97 % of control
- T/C [7]: 97 % of control

SMILES: C[N+](C)(CC(=O)Nc1ccc(Cl)c(Cl)c1)CC(=O)c1ccc(Cl)c(Cl)c1
- T/C [14]: 100 % of control
- T/C [15]: 100 % of control
- T/C [16]: 102 % of control

SMILES: Cc1ccc(Cl)c(NC(=O)COc2ccc(Cl)cc2)c1
- T/C [1]: 93 % of control
- T/C [2]: 94 % of control
- T/C [3]: 94 % of control

SMILES: N#Cc1c(/N=C/c2cc(Cl)cc(Cl)c2O)sc2c1CCC2
- T/C (dose: 100.0 mg/kg/injection, schedule: Q04DX002 (ip), vehicle: saline with Tween-80): 95 % of control
- T/C (dose: 200.0 mg/kg/injection, schedule: Q04DX002 (ip), vehicle: saline with Tween-80): 113 % of control
- T/C (dose: 400.0 mg/kg/injection, schedule: Q04DX002 (ip), vehicle: saline with Tween-80): 91 % of control

SMILES: COc1ccc(-n2c(=O)c(N=Nc3ccccc3)c(O)n(-c3ccccc3OC)c2=S)cc1
- T/C [13]: 101 % of control
- T/C (dose: 25.0 mg/kg/injection, schedule: Q01DX001 (ip), vehicle: saline with Tween-80): 90 % of control
- T/C (dose: 50.0 mg/kg/injection, schedule: Q01DX001 (ip), vehicle: saline with Tween-80): 94 % of control

SMILES: CN(Cc1ccccc1)c1cc(=O)[nH]c(=O)[nH]1
- T/C [4]: 102 % of control
- T/C [10]: 96 % of control
- T/C [12]: 100 % of control

SMILES: O=NN(CCCl)C(=O)Nc1ccccc1C(=O)O
- T/C (dose: 6.0 mg/kg/injection, schedule: Q01DX001 (ip), vehicle: carboxymethylcellulose (CMC)): 121 % of control
- T/C (dose: 9.0 mg/kg/injection, schedule: Q01DX001 (ip), vehicle: carboxymethylcellulose (CMC)): 156 % of control
